Where two headings read alike, the source gives them in different places.
Legend:
[1] = target: T1, Leishmania donovani DNA topoisomerase IB enzyme (LdTopIB) (Leishmania donovani, UniProt A0A3Q8IHS4+Q8WQM6); details: earlier work of the group; cited from earlier work
[2] = system: LdTopIB CPT^R (LdTopIL^1−561/S175end); test: Inhibition of CPT-resistant doubly truncated LdTopIB; assay type: biochemical, Leishmania donovani; details: 100 µM, 4 min at 25 °C, judged by supercoiled DNA band
Protocol: Figure 4 Methoxylated fatty acids inhibit LdTopIB by a CPT-independent mechanism. […] Samples were incubated for 4 min at 25 °C, stopped with 1% SDS and digested for one extra hour at 37 °C in the presence of 1 mg/mL proteinase K. DNA was extracted with one volume of phenol-chloroform and samples were run on a 1% agarose gel containing ethidium bromide to a final concentration of 40 μg/mL in order to separate supercoiled and relaxed DNA. The nicked band corresponds to the stabilized cleavage complexes. The results are representative of three independent trials.

[3] = system: L. infantum promastigotes; test: Toxicity towards L. infantum promastigotes; assay type: cell-based, Leishmania infantum
Excerpt: (§1) The experimental procedures employed to assess the toxicity of acids 1 and 2 towards L. infantum and L. donovani are the same as the ones previously described. CPT was used as the control drug.

[4] = system: Murine Macrophages BALB/c; test: Toxicity towards murine macrophages; assay type: cell-based; details: Mus musculus, Macrophage
Excerpt: Murine macrophages were chosen as reference for this study since Leishmania spp. normally infects macrophages and in macrophages is where Leishmania promastigotes are transformed into Leishmania amastigotes. […] The experimental procedures employed to assess the toxicity of acids 1 and 2 towards L. infantum and L. donovani are the same as the ones previously described. CPT was used as the control drug.

[5] = target: T1, Leishmania donovani DNA topoisomerase IB enzyme (LdTopIB); test: Inhibition of the relaxation activity of recombinant LdTopIB (plasmid DNA relaxation assay); assay type: biochemical; details: 30 min at 37 °C, 1.56–100 µM
Protocol: (§2) One unit of recombinant LdTopIB was assayed in a plasmid DNA relaxation assay for 30 min at 37 °C in the presence of 1.56–100 µM of either acids 1 or 2. Reaction products were resolved in agarose gel and subsequently visualized by ethidium bromide staining. The relative position of the negatively supercoiled DNA substrate is indicated by Sc, R is the relaxed DNA, whereas the ladder of relaxed DNA topoisomer bands is shown in between. Reactions were stopped with a mixture of 1% SDS and 6.1 µg of proteinase K. Lane 1 contains 0.5 µg of pSK plasmid DNA and lane 2, indicated by a 0, is 10% DMSO.
(§3) The LdTopIB and hTopIB inhibitory bioassays were performed as previously described. A brief description of the experimental procedure can be found as the header of Figure 1 and Figure 3.

[6] = target: T2, human topoisomerase IB enzyme (hTopIB) (Homo sapiens, UniProt P11387); test: Inhibition of the relaxation activity of hTopIB (plasmid DNA relaxation assay); assay type: biochemical; details: 30 min at 37 °C, 1–100 µM
T2 sequence (P11387 1-765): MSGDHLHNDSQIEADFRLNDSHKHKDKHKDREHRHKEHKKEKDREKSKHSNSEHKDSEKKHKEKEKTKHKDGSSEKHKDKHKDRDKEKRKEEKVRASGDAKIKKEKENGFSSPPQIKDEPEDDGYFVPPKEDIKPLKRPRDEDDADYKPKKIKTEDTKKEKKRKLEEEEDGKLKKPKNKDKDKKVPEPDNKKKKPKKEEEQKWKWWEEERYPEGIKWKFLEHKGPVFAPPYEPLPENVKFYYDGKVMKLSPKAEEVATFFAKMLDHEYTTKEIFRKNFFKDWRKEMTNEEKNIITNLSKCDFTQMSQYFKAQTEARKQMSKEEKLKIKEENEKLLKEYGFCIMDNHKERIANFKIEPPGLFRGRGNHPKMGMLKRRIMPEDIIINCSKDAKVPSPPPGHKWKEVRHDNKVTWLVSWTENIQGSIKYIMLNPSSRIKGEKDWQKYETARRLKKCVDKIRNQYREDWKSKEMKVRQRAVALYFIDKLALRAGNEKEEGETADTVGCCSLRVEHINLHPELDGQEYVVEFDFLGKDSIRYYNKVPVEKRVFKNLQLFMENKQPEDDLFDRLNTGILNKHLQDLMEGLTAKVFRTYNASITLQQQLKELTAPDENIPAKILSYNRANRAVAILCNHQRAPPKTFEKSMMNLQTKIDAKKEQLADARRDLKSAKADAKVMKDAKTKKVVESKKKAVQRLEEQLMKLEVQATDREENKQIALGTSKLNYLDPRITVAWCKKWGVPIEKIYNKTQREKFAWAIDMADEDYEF
Protocol: as §2, with “hTopIB” for “of recombinant LdTopIB”, “1–100” for “1.56–100”
as §3

[7] = system: L. donovani promastigotes; test: Toxicity towards L. donovani promastigotes; assay type: cell-based; details: Leishmania donovani
Excerpt: as §1

[8] = relaxation activity, read-out: LdTopIB EC50

T1 sequence (A0A3Q8IHS4 entry or part of it): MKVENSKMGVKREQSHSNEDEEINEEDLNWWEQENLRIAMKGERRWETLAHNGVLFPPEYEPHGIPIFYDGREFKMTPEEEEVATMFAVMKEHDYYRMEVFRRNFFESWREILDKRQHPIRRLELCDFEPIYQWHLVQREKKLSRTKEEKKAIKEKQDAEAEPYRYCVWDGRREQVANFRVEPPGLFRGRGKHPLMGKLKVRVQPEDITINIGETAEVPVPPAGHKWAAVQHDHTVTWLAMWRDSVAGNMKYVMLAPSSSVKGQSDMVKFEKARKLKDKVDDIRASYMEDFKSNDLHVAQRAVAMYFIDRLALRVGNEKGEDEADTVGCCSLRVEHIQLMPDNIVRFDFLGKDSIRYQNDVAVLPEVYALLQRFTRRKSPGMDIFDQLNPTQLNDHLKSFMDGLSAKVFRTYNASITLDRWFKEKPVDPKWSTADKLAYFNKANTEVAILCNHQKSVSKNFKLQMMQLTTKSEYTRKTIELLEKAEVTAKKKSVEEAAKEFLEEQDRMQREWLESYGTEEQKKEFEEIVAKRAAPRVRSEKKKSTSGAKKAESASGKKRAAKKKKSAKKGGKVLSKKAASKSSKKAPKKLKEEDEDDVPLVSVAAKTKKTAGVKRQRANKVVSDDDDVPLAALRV
T1 sequence (Q8WQM6 entry or part of it): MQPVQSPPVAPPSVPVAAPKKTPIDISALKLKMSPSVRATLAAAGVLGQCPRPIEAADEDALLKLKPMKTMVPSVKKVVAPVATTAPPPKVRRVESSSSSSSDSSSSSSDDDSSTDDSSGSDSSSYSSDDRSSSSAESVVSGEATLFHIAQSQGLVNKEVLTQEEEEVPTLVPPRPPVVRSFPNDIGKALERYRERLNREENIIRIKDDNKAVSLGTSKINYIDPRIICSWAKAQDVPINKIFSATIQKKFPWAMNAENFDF

Compound: CCCCCCCCCC/C=C\CCCC(OC)C(=O)O (racemic) [(±)-2-methoxy-6Z-heptadecenoic acid]
- EC50 [1]: 41 ± 6 µM

Compound: CC[C@@]1(O)C(=O)OCc2c1cc1n(c2=O)Cc2cc3ccccc3nc2-1 [CPT, Camptothecin, reference compound]
- Inhibition of LdTopIB CPT^R [2]: not able to inhibit
- EC50 ([3]; Leishmania infantum): 1.1 ± 0.1 µM
- IC50 [4]: 0.6 ± 0.1 µM
- EC50 ([5]; LdTopIB EC50, relaxation activity): 0.7 ± 0.1 µM

Compound: CCCCCCCCCCC#CCCCC(OC)C(=O)O (racemic) [(±)-2-OMe-6-heptadecynoic acid]
- EC50 [1]: 17 ± 1 µM

Compound: CCCCCCCCCC/C=C\CC/C=C\CCC(OC)C(=O)O (racemic) [compound 1, (5Z,9Z)-(±)-2-methoxy-5,9-eicosadienoic acid]
- Inhibition of LdTopIB CPT^R [2]: completely inhibit
- EC50 [3]: 260 ± 20 µM
- EC50 ([3]; Leishmania infantum): 240 to 260 µM
- IC50 [4]: 110 ± 10 µM
- EC50 [6]: > 100 µM
- EC50 [5, 8]: 31 ± 2 µM

Compound: CCCCCCCCCCCCCC#CCCCC(OC)C(=O)O (racemic) [compound 12, (±)-2-methoxy-6-icosynoic acid]
- IC50 [4]: > 100 µM
- IC50 ([7]; footnote a, in the column L. infantum EC50, read-out: IC50 against L. donovani promastigotes): 100 ± 10 µM
- EC50 ([7]; promastigotes): 100 µM
- EC50 [6]: > 100 µM
- EC50 [5, 8]: 53 ± 3 µM

Compound: CCCCCCCCCCC#CCCC#CCCC(OC)C(=O)O (racemic) [compound 2, (±)-2-methoxy-5,9-eicosadiynoic acid]
- Inhibition of LdTopIB CPT^R [2]: completely inhibit
- EC50 [3]: 240 ± 10 µM
- EC50 ([3]; Leishmania infantum): 240 to 260 µM
- IC50 [4]: 90 ± 20 µM
- EC50 [6]: > 100 µM
- EC50 [5, 8]: 22 ± 1 µM

From article PMC3826128 (Marine Drugs, 2013)
